What is called inhibition is how much of the control response was suppressed. The term pIC50 denotes the IC50 on a negative log10 scale, so that one unit is a factor of ten.

The target of this assay is T1, Human TRPV3 (Homo sapiens, UniProt Q8NET8).
T1 construct: expressed in transfected cells; host or cells: CHO cells (G-418 selection)
T1 sequence (Q8NET8 1-790): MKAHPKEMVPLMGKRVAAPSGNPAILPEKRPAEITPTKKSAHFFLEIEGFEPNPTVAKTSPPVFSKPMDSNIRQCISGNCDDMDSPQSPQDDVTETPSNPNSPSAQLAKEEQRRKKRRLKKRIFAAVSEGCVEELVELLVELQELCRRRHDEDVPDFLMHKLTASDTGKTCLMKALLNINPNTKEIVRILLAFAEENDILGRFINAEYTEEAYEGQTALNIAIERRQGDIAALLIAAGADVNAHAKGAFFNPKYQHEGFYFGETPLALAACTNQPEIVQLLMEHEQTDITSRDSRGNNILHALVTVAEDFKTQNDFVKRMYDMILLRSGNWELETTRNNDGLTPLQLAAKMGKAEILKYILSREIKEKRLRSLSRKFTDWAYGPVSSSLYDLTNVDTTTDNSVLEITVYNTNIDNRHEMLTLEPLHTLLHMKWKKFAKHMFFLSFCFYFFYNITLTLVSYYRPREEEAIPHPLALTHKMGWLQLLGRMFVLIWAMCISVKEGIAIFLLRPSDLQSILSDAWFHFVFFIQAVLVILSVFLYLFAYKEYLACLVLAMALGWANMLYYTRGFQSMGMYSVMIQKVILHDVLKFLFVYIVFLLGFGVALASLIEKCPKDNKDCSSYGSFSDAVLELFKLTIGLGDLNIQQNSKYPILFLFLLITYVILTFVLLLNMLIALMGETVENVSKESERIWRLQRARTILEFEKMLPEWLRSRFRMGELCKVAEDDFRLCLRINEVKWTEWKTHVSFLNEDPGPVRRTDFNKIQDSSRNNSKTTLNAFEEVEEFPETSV
Nature of the assay: Screening for TRPV3 antagonist using the 45Calcium uptake assay (inhibition of 2-APB induced cellular uptake of radioactive calcium). The class given is cell-based. The settings on record: human TRPV3 expressing CHO cells, 2-APB 500 μM; for inhibition at 1 µM / Percentage inhibition at 1.0 μM: 1.0 μM test compound; for inhibition at 1 µM: read-out: Percentage inhibition at 1.0 μM; for inhibition at 10 µM / Percentage inhibition at 10.0 μM: 10.0 μM test compound; for inhibition at 10 µM: read-out: Percentage inhibition at 10.0 μM; for pIC50: class symbols. The method in brief:
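CHO cells stably expressing human TRPV3, preincubated 10 min with test compound, then 2-APB (500 μM final) plus 5 μCi/ml 45Ca2+ for 4 min in DMEM/F-12 with 1.8 mM CaCl2; 0.5% DMSO final. Lysate radioactivity by scintillation counting. IC50 by nonlinear regression of % maximal response; % inhibition at 1.0 and 10.0 μM.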

Each structure is given as a SMILES string. pIC50: −log10 of the molar value.

As for `O=c1c(-c2ccc(OC(F)(F)F)cc2)c(/C=C/c2cccc(OCC3CC3)c2OCC2CC2)nc2sccn12` [Example 64, 7-{(E)-2-[2-(Cyclopropylmethoxy)-3-(cyclopropylmethoxy)phenyl]-1-ethenyl}-6-(4-trifluoromethoxyphenyl)-5H-[1,3]thiazolo[3,2-a]pyrimidin-5-one], the inhibition at 1 µM was 16.3% and the inhibition at 10 µM was 21.1%.
For `CCCOc1c(/C=C/c2nc3sccn3c(=O)c2-c2ccc(OC(F)(F)F)cc2)cccc1OC` [Example 54, 7-[(E)-2-(3-Methoxy-2-propoxyphenyl)-1-ethenyl]-6-[4-(trifluoromethoxy)phenyl]-5H-[1,3]thiazolo[3,2-a]pyrimidin-5-one], the inhibition at 1 µM came to 72.8%, the inhibition at 10 µM is 95.3% and the pIC50 is above 6.60.
Consider `COc1cccc(/C=C/c2nc3sccn3c(=O)c2-c2ccc(N(C)C)cc2)c1OCC(C)(C)C` [Example 42, 6-(4-Dimethylaminophenyl)-7-[(E)-2-(3-methoxy-2-neopentyloxy)phenyl-1-ethenyl]-5H-[1,3]thiazolo[3,2-a]pyrimidin-5-one], for which the inhibition at 1 µM came to 62.7% and the inhibition at 10 µM is 78.5%.
Consider `COc1cccc(/C=C/c2nc3sc4ccccc4n3c(=O)c2-c2ccc(OC(F)(F)F)cc2)c1OCC1CC1` [Example 95], for which the inhibition at 1 µM was 10.9% and the inhibition at 10 µM came to 23.7%.
For `COc1cc(/C=C/c2nc3sc4ccccc4n3c(=O)c2-c2ccc(C(F)(F)F)cc2)ccc1OCCCC#N` [Example 94, 2-{(E)-2-[(3-Cyanopropoxy-3-methoxy)phenyl]-1-ethenyl}-3-(4-trifluoromethyl-phenyl)-4H-benzo[4,5][1,3]thiazolo-[3,2-a]pyrimidin-4-one], the “Percentage inhibition at 1.0 μM” value is 5.84% and the “Percentage inhibition at 10.0 μM” value was 10.03%.
In the same order, the values of `COc1cccc(/C=C/c2nc3sccn3c(=O)c2-c2ccc(C(C)=O)cc2)c1OCC1CC1` [Example 5] are 60.3% and 95.1%.
Turning to `CCCCOc1c(/C=C/c2nc3sccn3c(=O)c2-c2ccc(C(F)(F)F)cc2)cccc1OC` [Example 26, 7-[(E)-2-(2-Butoxy-3-methoxyphenyl)-1-ethenyl]-6-[4-(trifluoromethyl)phenyl]-5H-[1,3]thiazolo[3,2-a]pyrimidin-5-one], the inhibition at 1 µM is 56.6% and the inhibition at 10 µM was 84.5%.
Turning to `CCCCCOc1c(/C=C/c2nc3sccn3c(=O)c2-c2ccc(C#N)cc2)cccc1OC` [Example 10, 4-{7-[(E)-2-(3-Methoxy-2-pentyloxyphenyl)-1-ethenyl]-5-oxo-5H-[1,3]-thiazolo[3,2-a]pyrimidin-6-yl}benzonitrile], the inhibition at 1 µM is 74.8%, the inhibition at 10 µM is 92.9% and the pIC50 was 6.30 to 6.60.
As to `COc1cccc(/C=C/c2nc3sccn3c(=O)c2-c2ccc(C(F)(F)F)cc2)c1OCCCC#N` [Example 30], the “Percentage inhibition at 1.0 μM” value was 45.2% and the “Percentage inhibition at 10.0 μM” value was 75.9%.
Take `COc1cccc(/C=C/c2nc3scc(C)n3c(=O)c2-c2ccc(OC(F)(F)F)cc2)c1OCC1CC1` [Example 76, 7-[(E)-2-(2-Cyclopropylmethoxy-3-methoxyphenyl)-1-ethenyl]-3-methyl-6-[4-(trifluoromethoxy)phenyl]-5H-[1,3]thiazolo[3,2-a]pyrimidin-5-one]: the inhibition at 1 µM was found to be 61.9% and the inhibition at 10 µM stood at 79.3%.
Take `COc1cccc(/C=C/c2nc3sc(Cl)cn3c(=O)c2-c2ccc(C#N)cc2)c1OCC(C)(C)C` [Example 80, 4-{2-Chloro-7-[(E)-2-(2-(2,2-dimethylpropoxy)-3-methoxyphenyl)vinyl]-5-oxo-5H-[1,3]thiazolo[3,2-a]pyrimidin-6-yl}benzonitrile]: the inhibition at 1 µM is 69.1%, the inhibition at 10 µM is 87.7% and the pIC50 was 6.00 to 6.30.
For `CCOCCOc1c(/C=C/c2nc3sc4ccccc4n3c(=O)c2-c2ccc(C#N)cc2)cccc1OC` [Example 85] the same measures were 81.8%, 91.9% and above 6.60.
With `COc1cccc(/C=C/c2nc3sccn3c(=O)c2-c2ccc(C(F)(F)F)cc2)c1OCC(C)(C)C` [Example 29, 7-[(E)-2-(3-Methoxy-2-neopentyloxy)phenyl-1-ethenyl]-6-(4-(trifluoromethyl)phenyl)-5H-[1,3]thiazolo[3,2-a]pyrimidin-5-one], the inhibition at 1 µM is 86.5%, the inhibition at 10 µM was found to be 93.7% and the pIC50 is above 6.60.
Consider `COc1cccc(/C=C/c2nc3sccn3c(=O)c2-c2ccc(O)cc2)c1OCC1CC1` [Example 7, 7-[(E)-2-(2-Cyclopropylmethoxy-3-methoxyphenyl)-1-ethenyl]-6-(4-hydroxyphenyl)-5H-[1,3]thiazolo[3,2-a]pyrimidin-5-one], for which the inhibition at 1 µM came out at 12% and the inhibition at 10 µM amounted to 69.3%.
In the same order, the values of `COc1cccc(/C=C/c2nc3sc(C)c(C)n3c(=O)c2-c2ccc(OC(F)(F)F)cc2)c1OCC1CC1` [Example 77, 7-[(E)-2-(2-Cyclopropylmethoxy-3-methoxyphenyl)-1-ethenyl]-2,3-dimethyl-6-[4-(trifluoromethoxy)phenyl]-5H-[1,3]thiazolo[3,2-a]pyrimidin-5-one] are 24.7% and 44%.
With `COc1cccc(/C=C/c2nc3sc(Cl)cn3c(=O)c2-c2ccc(N(C)C)cc2)c1OCC(C)C` [Example 81, 2-Chloro-6-[4-(dimethylamino)phenyl]-7-[(E)-2-(2-isobutoxy-3-methoxyphenyl)vinyl]-5H-[1,3]thiazolo[3,2-a]pyrimidin-5-one], the inhibition at 1 µM is 64.3%, the inhibition at 10 µM was 78.5% and the negative logarithm of the IC50 (pIC50) is 6.30 to 6.60.
`CCOCCOc1c(/C=C/c2nc3sc4ccccc4n3c(=O)c2-c2ccc(C(F)(F)F)cc2)cccc1OC` [Example 93, 2-{(E)-2-[(2-Ethoxyethoxy)-3-methoxyphenyl]-1-ethenyl}-3-(4-trifluoromethyl-phenyl)-4H-benzo[4,5][1,3]thiazolo-[3,2-a]pyrimidin-4-one]: the “Percentage inhibition at 1.0 μM” value came to 6.53% and the “Percentage inhibition at 10.0 μM” value was found to be 40.18%.
In the same order, the values of `CCCCOc1c(/C=C/c2nc3sc4ccccc4n3c(=O)c2-c2ccc(C#N)cc2)cccc1OC` [Example 87] are 34.44% and 60.79%.
Regarding `COCCOc1c(/C=C/c2nc3sc4ccccc4n3c(=O)c2-c2ccc(OC(F)(F)F)cc2)cccc1OC` [Example 96, 2-{(E)-2-[3-Methoxy-2-(2-methoxyethoxy)phenyl]-1-ethenyl}-3-(4-trifluoromethoxy-phenyl)-4H-benzo[4,5][1,3]thiazolo-[3,2-a]pyrimidin-4-one], the inhibition at 1 µM was 24.8% and the inhibition at 10 µM was determined as 67.7%.
As for `CCCCOc1c(/C=C/c2nc3sccn3c(=O)c2-c2ccc(OC(F)(F)F)cc2)cccc1OC` [Example 57, 7-[(E)-2-(2-Butoxy-3-methoxyphenyl)-1-ethenyl]-6-[4-(trifluoromethoxy)phenyl]-5H-[1,3]thiazolo[3,2-a]pyrimidin-5-one], the inhibition at 1 µM turned out to be 79.4%, the inhibition at 10 µM is 91.9% and the pIC50 was above 6.60.
Regarding `COc1cc(/C=C/c2nc3sccn3c(=O)c2-c2ccc(C(F)(F)F)cc2)ccc1OCC1CC1` [Example 38, 7-[(E)-2-(4-Cyclopropylmethoxy-3-methoxyphenyl)-1-ethenyl]-6-[4-(trifluoromethyl)-phenyl]-5H-[1,3]thiazolo[3,2-a]pyrimidin-5-one], the inhibition at 1 µM is 28.6% and the inhibition at 10 µM stood at 50.2%.
In the same order, the values of `COc1cccc(/C=C/c2nc3sccn3c(=O)c2-c2ccc(OC(F)(F)F)cc2)c1OCC1CCCCC1` [Example 71, 7-[(E)-2-(2-Cyclohexylmethoxy-3-methoxyphenyl)-1-ethenyl]-6-[4-(trifluoromethoxy)phenyl]-5H-[1,3]thiazolo[3,2-a]pyrimidin-5-one] are 61.1% and 80.8%.
As to `COc1cccc(/C=C/c2nc3sccn3c(=O)c2-c2ccc(OC(F)(F)F)cc2)c1OCC(C)C` [Example 51, 7-[(E)-2-(2-Isobutoxy-3-methoxyphenyl)-1-ethenyl]-6-[4-(trifluoromethoxy)phenyl]-5H-[1,3]thiazolo[3,2-a]pyrimidin-5-one], the inhibition at 1 µM is 89.1%, the inhibition at 10 µM was determined as 95.6% and the pIC50 is above 6.60.

(Values after patent US8119647B2, “Fused pyrimidineone compounds as TRPV3 modulators” (Glenmark Pharmaceuticals S.A., priority 2008, dated 2012).)
